# According to patent US20210371351A1, “MIXTURES COMPRISING AT LEAST TWO DIFFERENT NITRIFICATION INHIBITORS SELECTED FROM 2-(3,4-DIMETHYL-1H-PYRAZOL-1-YL)SUCCINIC ACID (DMPSA), 3,4-DIMETHYL PYRAZOLIUM GLYCOLATE (DMPG) AND OTHER COMPOUNDS” (BASF SE, priority 2017, published 2021):
# Test system: nitrification
# Assay: Example 5: soil incubation in bottles with ammonium sulfate, DMPSA, DCD or mixtures, 5 to 15° C., 0 up to 56 days; recovery NH4 (RE/RC), net recovery NH4 (NE/NC), inhibition of NO3 formation (IE/IC, Böhland; Colby)
# Experimental: 100 g soil is filled into 500 ml plastic bottles (e.g. soil sampled from the field) and is moistened to 50% water holding capacity. The soil is incubated at 20° C. for two weeks to activate the microbial biomass. 1 ml test solution, containing the compositions and mixtures of the invention in the appropriate concentration, or DMSO and 5 to 10 mg nitrogen in the form of ammoniumsulfate-N is added to the soil and everything mixed well. Bottles are capped but loosely to allow air exchange. The bottles are then incubated at 5 to 15° C. for 0 up to 56 days.
# For analysis, 300 ml of a 1% K2SO4-solution is added to the bottle containing the soil and shaken for 2 hrs in a horizontal shaker at 150 rpm. Then the whole solution is filtered through a Macherey-Nagel Filter MN 807′/. Ammonium and nitrate content is then analyzed in the filtrate in an autoanalyzer at 550 nm (Merck, AA11).
# The Böhland equation is described in Böhland, H., et al. (1973) “Mittel zur Hemmung bzw. Regelung der Nitrifikation von Ammoniumstickstoff in Kulturböden”. DDR-Wirtschaftspatent (Economic patent of the German Democratic Republic) C 05c 169 727. Cited by: Peschke, H. (1985) “Zur Bewertung der inhibierenden Wirkung von Nitrifiziden im Boden”, Zbl. Mikrobiol. 140, pp. 583-588.
structure (smiles),measurement,setting,value
"N#CN=C(N)N [DCD, dicyandiamide]",IE inhibition of NO3 formation,"IT5° C., DAT10, % a.i.: DMPSA 0.5, DCD 1, DMPSA + DCD 0.5 + 1 (1:2)",10
same,IE inhibition of NO3 formation,"IT5° C., DAT10, % a.i.: DMPSA 0.5, DCD 3, DMPSA + DCD 0.5 + 3 (1:6)",43
same,IE inhibition of NO3 formation,"IT5° C., DAT20, % a.i.: DMPSA 0.5, DCD 1, DMPSA + DCD 0.5 + 1 (1:2)",−5
same,IE inhibition of NO3 formation,"IT5° C., DAT20, % a.i.: DMPSA 0.5, DCD 3, DMPSA + DCD 0.5 + 3 (1:6)",32
same,"IE (inhibition of NO3 formation, Böhland)","IT5° C., DAT28, % a.i. DMPSA 0.25, DCD 1",65
same,"IE (inhibition of NO3 formation, Böhland)","IT5° C., DAT28, % a.i. DMPSA 0.25, DCD 3",73
same,"IE (inhibition of NO3 formation, Böhland)","IT5° C., DAT28, % a.i. DMPSA 0.30, DCD 0.05",1
same,"IE (inhibition of NO3 formation, Böhland)","IT5° C., DAT28, % a.i. DMPSA 0.50, DCD 0.08",12
same,IE inhibition of NO3 formation,"IT5° C., DAT28, % a.i.: DMPSA 0.50, DCD 0.0125, DMPSA + DCD 0.50 + 0.0125 (40:1)",−7
same,IE inhibition of NO3 formation,"IT5° C., DAT28, % a.i.: DMPSA 0.50, DCD 0.0143, DMPSA + DCD 0.50 + 0.0143 (35:1)",−2
same,IE inhibition of NO3 formation,"IT5° C., DAT28, % a.i.: DMPSA 0.50, DCD 0.0167, DMPSA + DCD 0.50 + 0.0167 (30:1)",0
same,IE inhibition of NO3 formation,"IT5° C., DAT30, % a.i.: DMPSA 0.5, DCD 1, DMPSA + DCD 0.5 + 1 (1:2)",70
same,IE inhibition of NO3 formation,"IT5° C., DAT30, % a.i.: DMPSA 0.5, DCD 3, DMPSA + DCD 0.5 + 3 (1:6)",113
same,"IE (inhibition of NO3 formation, Böhland)","IT5° C., DAT42, % a.i. DMPSA 0.25, DCD 1",63
same,"IE (inhibition of NO3 formation, Böhland)","IT5° C., DAT42, % a.i. DMPSA 0.25, DCD 3",82
same,"IE (inhibition of NO3 formation, Böhland)","IT5° C., DAT42, % a.i. DMPSA 0.30, DCD 0.05",7
same,"IE (inhibition of NO3 formation, Böhland)","IT5° C., DAT42, % a.i. DMPSA 0.50, DCD 0.08",18
same,"IE (inhibition of NO3 formation, Böhland)","IT5° C., DAT56, % a.i. DMPSA 0.25, DCD 1",57
same,"IE (inhibition of NO3 formation, Böhland)","IT5° C., DAT56, % a.i. DMPSA 0.25, DCD 3",74
same,"IE (inhibition of NO3 formation, Böhland)","IT5° C., DAT56, % a.i. DMPSA 0.30, DCD 0.05",13
same,"IE (inhibition of NO3 formation, Böhland)","IT5° C., DAT56, % a.i. DMPSA 0.50, DCD 0.08",−1
same,IE inhibition of NO3 formation,"IT10° C., DAT10, % a.i.: DMPSA 0.5, DCD 1, DMPSA + DCD 0.5 + 1 (1:2)",18
same,IE inhibition of NO3 formation,"IT10° C., DAT10, % a.i.: DMPSA 0.5, DCD 3, DMPSA + DCD 0.5 + 3 (1:6)",59
same,IE inhibition of NO3 formation,"IT10° C., DAT20, % a.i.: DMPSA 0.5, DCD 1, DMPSA + DCD 0.5 + 1 (1:2)",15
same,IE inhibition of NO3 formation,"IT10° C., DAT20, % a.i.: DMPSA 0.5, DCD 3, DMPSA + DCD 0.5 + 3 (1:6)",24
same,"IE (inhibition of NO3 formation, Böhland)","IT10° C., DAT28, % a.i. DMPSA 0.25, DCD 1",47
same,"IE (inhibition of NO3 formation, Böhland)","IT10° C., DAT28, % a.i. DMPSA 0.25, DCD 3",64
same,"IE (inhibition of NO3 formation, Böhland)","IT10° C., DAT28, % a.i. DMPSA 0.30, DCD 0.05",4
same,"IE (inhibition of NO3 formation, Böhland)","IT10° C., DAT28, % a.i. DMPSA 0.50, DCD 0.08",2
same,IE inhibition of NO3 formation,"IT10° C., DAT28, % a.i.: DMPSA 0.50, DCD 0.0125, DMPSA + DCD 0.50 + 0.0125 (40:1)",1
same,IE inhibition of NO3 formation,"IT10° C., DAT28, % a.i.: DMPSA 0.50, DCD 0.0143, DMPSA + DCD 0.50 + 0.0143 (35:1)",−3
same,IE inhibition of NO3 formation,"IT10° C., DAT28, % a.i.: DMPSA 0.50, DCD 0.0167, DMPSA + DCD 0.50 + 0.0167 (30:1)",−1
same,IE inhibition of NO3 formation,"IT10° C., DAT30, % a.i.: DMPSA 0.5, DCD 1, DMPSA + DCD 0.5 + 1 (1:2)",47
same,IE inhibition of NO3 formation,"IT10° C., DAT30, % a.i.: DMPSA 0.5, DCD 3, DMPSA + DCD 0.5 + 3 (1:6)",55
same,"IE (inhibition of NO3 formation, Böhland)","IT10° C., DAT42, % a.i. DMPSA 0.25, DCD 1",51
same,"IE (inhibition of NO3 formation, Böhland)","IT10° C., DAT42, % a.i. DMPSA 0.25, DCD 3",64
same,"IE (inhibition of NO3 formation, Böhland)","IT10° C., DAT42, % a.i. DMPSA 0.30, DCD 0.05",−1
same,"IE (inhibition of NO3 formation, Böhland)","IT10° C., DAT42, % a.i. DMPSA 0.50, DCD 0.08",−1
same,"IE (inhibition of NO3 formation, Böhland)","IT10° C., DAT56, % a.i. DMPSA 0.25, DCD 1",19
same,"IE (inhibition of NO3 formation, Böhland)","IT10° C., DAT56, % a.i. DMPSA 0.25, DCD 3",29
same,"IE (inhibition of NO3 formation, Böhland)","IT10° C., DAT56, % a.i. DMPSA 0.30, DCD 0.05",−3
same,"IE (inhibition of NO3 formation, Böhland)","IT10° C., DAT56, % a.i. DMPSA 0.50, DCD 0.08",0
same,IE inhibition of NO3 formation,"IT15° C., DAT10, % a.i.: DMPSA 0.5, DCD 1, DMPSA + DCD 0.5 + 1 (1:2)",34
same,IE inhibition of NO3 formation,"IT15° C., DAT10, % a.i.: DMPSA 0.5, DCD 3, DMPSA + DCD 0.5 + 3 (1:6)",55
same,IE inhibition of NO3 formation,"IT15° C., DAT20, % a.i.: DMPSA 0.5, DCD 1, DMPSA + DCD 0.5 + 1 (1:2)",47
same,IE inhibition of NO3 formation,"IT15° C., DAT20, % a.i.: DMPSA 0.5, DCD 3, DMPSA + DCD 0.5 + 3 (1:6)",64
same,"IE (inhibition of NO3 formation, Böhland)","IT15° C., DAT28, % a.i. DMPSA 0.25, DCD 1",27
same,"IE (inhibition of NO3 formation, Böhland)","IT15° C., DAT28, % a.i. DMPSA 0.25, DCD 3",46
same,IE inhibition of NO3 formation,"IT15° C., DAT28, % a.i.: DMPSA 0.30, DCD 0.05, DMPSA + DCD 0.30 + 0.05 (6:1)",5
same,IE inhibition of NO3 formation,"IT15° C., DAT28, % a.i.: DMPSA 0.50, DCD 0.0125, DMPSA + DCD 0.50 + 0.0125 (40:1)",2
same,IE inhibition of NO3 formation,"IT15° C., DAT28, % a.i.: DMPSA 0.50, DCD 0.0143, DMPSA + DCD 0.50 + 0.0143 (35:1)",1
same,IE inhibition of NO3 formation,"IT15° C., DAT28, % a.i.: DMPSA 0.50, DCD 0.0167, DMPSA + DCD 0.50 + 0.0167 (30:1)",1
same,IE inhibition of NO3 formation,"IT15° C., DAT28, % a.i.: DMPSA 0.50, DCD 0.08, DMPSA + DCD 0.50 + 0.08 (6.25:1)",2
same,IE inhibition of NO3 formation,"IT15° C., DAT30, % a.i.: DMPSA 0.5, DCD 1, DMPSA + DCD 0.5 + 1 (1:2)",42
same,IE inhibition of NO3 formation,"IT15° C., DAT30, % a.i.: DMPSA 0.5, DCD 3, DMPSA + DCD 0.5 + 3 (1:6)",59
same,"IE (inhibition of NO3 formation, Böhland)","IT15° C., DAT42, % a.i. DMPSA 0.25, DCD 1",12
same,"IE (inhibition of NO3 formation, Böhland)","IT15° C., DAT42, % a.i. DMPSA 0.25, DCD 3",21
same,IE inhibition of NO3 formation,"IT15° C., DAT42, % a.i.: DMPSA 0.30, DCD 0.05, DMPSA + DCD 0.30 + 0.05 (6:1)",2
same,IE inhibition of NO3 formation,"IT15° C., DAT42, % a.i.: DMPSA 0.50, DCD 0.08, DMPSA + DCD 0.50 + 0.08 (6.25:1)",3
same,"IE (inhibition of NO3 formation, Böhland)","IT15° C., DAT56, % a.i. DMPSA 0.25, DCD 1",1
same,"IE (inhibition of NO3 formation, Böhland)","IT15° C., DAT56, % a.i. DMPSA 0.25, DCD 3",3
same,IE inhibition of NO3 formation,"IT15° C., DAT56, % a.i.: DMPSA 0.30, DCD 0.05, DMPSA + DCD 0.30 + 0.05 (6:1)",16
same,IE inhibition of NO3 formation,"IT15° C., DAT56, % a.i.: DMPSA 0.50, DCD 0.08, DMPSA + DCD 0.50 + 0.08 (6.25:1)",13
